# Experiments:
# [1] = test system: BRCA2 knockout tumor cells; assay: Xenograft model, BRCA2 knockout vs isogenic wild type; assay type: in vivo; conditions: BRCA2 knockout tumor cells in xenograft model compared with isogenic wild type control cells
# metastatic breast cancer = assay: Evaluation of predictive biomarkers of response to Compound I in patients; assay type: in vivo, human
# Protocol: The duration on therapy at each dose level for evaluable patients is depicted in FIG. 15. 18 patients were diagnosed with metastatic breast cancer. […] This study was conducted to evaluate predictive biomarkers of response to Compound I and to explore the relationship between germline HRD aberrations and outcomes of Compound I treatments.
# BRCA deficient cells = assay: Toxicity against BRCA deficient cells; assay type: cell-based; conditions: cell lines of different genetic backgrounds (colon, breast and ovary), mouse and human
# [2] = Polymorph conversion on heating in MeOH/PPW (3:1) under neutral conditions; assay type: physicochemical; conditions: about 60-65° C., 6 hours instead of 4
# Protocol: In the procedure discussed in Example 1, the wet cake obtained in the Neutralization/Polymorph Formation step was vacuum dried at no more than 65° C. Then the dried Compound I (dried wet cake) was dissolved in DCM/MeOH (3/1, v/v) and purified on silica gel column eluting with DCM/MeOH (3/1, v/v). The fractions containing Compound I was collected and passed through an in-line filter. Then Compound I was precipitated from DCM/MeOH via solvent-swap with MeOH (under vacuum with the jacket temperature of no more than 30C). After the DCM was distilled off, Compound I in MeOH was filtered and the wet cake was washed with methanol. The wet cake was vacuum dried at no more than 65° C. Then the dried Compound I, which existed in Polymorph E, was stirred in MeOH/PPW (3:1) and heated at about 60° C. to about 65° C. for 4 hours. Then the temperature was cooled down to 20° C. to 30° C. and stirred at that temperature for no longer than 1 hour. […] In the final heating step, if the mixture is heated for 6 hours instead of 4 hours, Polymorph A was observed.
# It is believed that Polymorph K was transformed from Polymorph E under neutral conditions. […] Thus, without bound to be any theory, Polymorph K is believe to be a metastable form between Polymorphs E and A.
# [3] = Quick solubility analysis in pH 4.5 buffer; assay type: physicochemical; conditions: pH 4.5 buffer solution (25 mM sodium acetate, 25° C.), filtered, LC, pH changed to 5-6
# Protocol: A quick solubility analysis was conducted on Compound I Polymorphs A and J (Table 3). Each sample was suspended in pH 4.5 buffer solution (25 mM sodium acetate, 25° C.) for 10 minutes and then filtered for LC (liquid chromatography) analysis.
# [4] = Stability test at 25° C./60% RH for 18 months (XRPD, DSC); assay type: physicochemical
# Protocol: Further, stability of Polymorph J was analyzed in solution having the composition:
# Sample Preparation: 37.5 kg of WFI was added to the compounding vessel at a temperature in the range of 15 to 30° C. Vigorously sparge WFI with nitrogen for no less than 30 minutes by placing the nitrogen sparging tubing at the bottom of the pressure vessel. Continue sparging in the vessel until dissolved oxygen content was <1 ppm. In a second pressure vessel was added 20.0 kg nitrogen sparged WFI and sucrose and mixed until dissolved while continuing nitrogen sparging, not less than 15 minutes. Nitrogen sparging continued as necessary until dissolved oxygen content was <1 ppm of the sucrose solution. To the sucrose solution, 813.8 g of 2 M HCl solution was slowly added and mixed for no less than 10 minutes after addition was complete. Add Compound I into the sucrose solution vessel and rinse container that contained Compound I with nitrogen sparged WFI. Mix solution until dissolved (no less than 15 min). Add 43.5 mL of 2 M HCl and mix for no less than 5 minutes. If solution is not visually dissolved, add another portion of 43.5 mL of 2M HCl and mix for no less than 5 minutes. Adjust pH, if necessary to 4.4-4.6 with 2M HCl or 1M NaOH solution prepared using nitrogen sparged WFI. Mix solution after each addition of 2M HCl or 1M NaOH. Adjust volume with nitrogen-sparged WFI as necessary. Pull a 10 mL sample to measure pH. If necessary, re-adjust pH to 4.4-4.6 using 2M HCl or 1M NaOH solution prepared using nitrogen sparged WFI. Filtration and filling directly proceeded this step. No material was stored overnight. […]
# Aseptic filling of the sterile solution: The Compound I sterile solution was filled into 20-cc clean, de-pyrogenated glass vials, with periodic weight checks to assure that the target fill quantity (5.05 g/vial) was maintained, and the vials were semi-stoppered with sterile elastomeric closures to provide the sample for stability analysis.
# The sample was stored at 25° C. in 60% relative humidity (RH) for 18 months. After 18 months, the sample was analyzed by XRPD and DSC (see FIGS. 10 and 11).
# [5] = Heating of Polymorph J without solvent at 205° C.; assay type: physicochemical; conditions: 30 minutes
# [6] = Polymorphic equilibrium and transformation study in MeOH/PPW at 65° C. (XRPD); assay type: physicochemical
# Protocol: Polymorphic equilibrium studies were performed using Compound I Polymorph A and Compound I Polymorph J. To a 3-neck 250 mL flask equipped with a 3 cm stir bar and N2 inlet, a 1:1 mixture of Compound I Polymorph A (5 g) and Compound I Polymorph J (5 g, sample shown in FIG. 1), MeOH (112.5 mL, 11.25 vol) and purified process water (PPW, 37.5 mL, 3.75 vol) were charged. The resulting mixture was stirred at room temperature for 10 min, and then heated to 65° C. and sampled at 2 hrs, 4 hrs, and 6 hrs and analyzed by XRPD analysis as shown in FIG. 7.
# A polymorphic transformation study was also performed. To a 20 mL vial containing a 2 cm stir bar, Compound I Polymorph J (0.5 g, sample shown in FIG. 1), MeOH (5.6 mL, 11.25 vol) and PPW (1.9 mL, 3.75 vol) were charged. The resulting mixture was heated to 65° C. for 6 hrs. Upon completion, the slurry was filtered through a Buchner funnel, and the solid was collected for XRPD analysis as shown in FIG. 8.
# As described in Example 1, Polymorph J crystals precipitated out around pH 9-10 during final pH adjustment step to pH 12-13. Polymorph J is then heated to 60° C. to 65° C. in MeOH/PPW (3:1) for approximately 4 hours and maintains its polymorphic form. Thus, substantially pure (polymorphic purity) Polymorph J in MeOH/PPW (3:1) is stable at 65° C. for at least 4 hours.
smiles,measurement,setting,value
"Cc1cnc(CNC(=O)c2c(=O)c3ccc(N4CCCN(C)CC4)nc3n3c2sc2ccccc23)cn1 [Compound I, 2-(4-Methyl-[1,4]diazepan-1-yl)-5-oxo-5H-7-thia-1,11b-diaza-benzo[c]fluorene-6-carboxylic acid (5-methyl-pyrazin-2-ylmethyl)-amide]",Therapeutic index of activity,[1],wide therapeutic index of activity
same,Response to treatment,"metastatic breast cancer; patient with PALB2 mutation and BRCA2 mutation, 650 mg/m^2 on Day 1, Day 8, Day 15 of a 28 day cycle",partial response (PR)
same,Tumor shrinkage,"metastatic breast cancer; patients with BRCA2 mutation, dose greater than or equal to 150 mg/m^2",tumor shrinkage were observed
same,Toxicity against BRCA deficient cells,BRCA deficient cells,specific toxicity against BRCA deficient cells
"Cc1cnc(CNC(=O)c2c(=O)c3ccc(N4CCCN(C)CC4)nc3n3c2sc2ccccc23)cn1 [Polymorph K, 2-(4-Methyl-[1,4]diazepan-1-yl)-5-oxo-5H-7-thia-1,11b-diaza-benzo[c]fluorene-6-carboxylic acid (5-methyl-pyrazin-2-ylmethyl)-amide]",Polymorphic conversion upon prolonged heating,[2],converts to Polymorph A
"Cc1cnc(CNC(=O)c2c(=O)c3ccc(N4CCCN(C)CC4)nc3n3c2sc2ccccc23)cn1 [Polymorph J, 2-(4-Methyl-[1,4]diazepan-1-yl)-5-oxo-5H-7-thia-1,11b-diaza-benzo[c]fluorene-6-carboxylic acid (5-methyl-pyrazin-2-ylmethyl)-amide]",Solubility,[3]; 10 minutes,28.6 mg/mL
same,Time stable on storage,[4],at least 18 months
same,Shift of second endothermic DSC peak after storage versus initial sample,[4]; 18 months,about 5 °C
same,XRPD pattern after storage,[4]; 18 months,substantially similar to the XRPD pattern of the initial sample
same,Crystallinity by XRPD after heating,[5],less crystalline
same,Polymorphic form by XRPD after heating,"[6]; MeOH/PPW, 65° C., 6 hrs",converted to Polymorph A
same,Time polymorphic form is stable,[6]; substantially pure Polymorph J in MeOH/PPW (3:1) at 65° C.,at least 4 hours
"Cc1cnc(CNC(=O)c2c(=O)c3ccc(N4CCCN(C)CC4)nc3n3c2sc2ccccc23)cn1 [Polymorph A, 2-(4-Methyl-[1,4]diazepan-1-yl)-5-oxo-5H-7-thia-1,11b-diaza-benzo[c]fluorene-6-carboxylic acid (5-methyl-pyrazin-2-ylmethyl)-amide]",solubility at 10 min,"[3]; sodium acetate buffer, 25 °C, pH 4.5, aqueous buffer, thermodynamic from solid",29.3 mg/mL
same,Relative thermodynamic stability of polymorphs,"[6]; MeOH/PPW, 65° C.",more thermodynamically stable than Polymorph J
